In PubChem BioAssay (NCI):
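The compound was tested at five concentrations on cells cultured in 96-well plates, with a 48-hour exposure period. At the TGI there is no net growth.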

Experiments:
Test in all cases: NCI tumour cell line growth inhibition, 48 h
[1] = system: MALME-3M melanoma
[2] = system: M19-MEL melanoma
[3] = system: KM12 colon
[4] = system: SK-MEL-28 melanoma
[5] = system: NCI-H23 lung
[6] = system: SNB-78 CNS
[7] = system: A549 NSCLC
[8] = system: MOLT-4 leukemia
[9] = system: DMS 273 small cell lung
[10] = system: M14 melanoma
[11] = system: NCI-H522 lung
[12] = system: HOP-92 NSCLC
[13] = system: UACC-62 melanoma
[14] = system: RXF-631 renal
[15] = system: SNB-19 CNS
[16] = system: DLD-1 colon
[17] = system: HT29 colon
[18] = system: HCT-15 colon
[19] = system: OVCAR-8 ovarian
[20] = system: KM20L2 colon
[21] = system: UO-31 renal
[22] = system: SK-OV-3 ovarian
[23] = system: HOP-18 NSCLC
[24] = system: SNB-75 CNS
[25] = system: HL-60(TB) leukemia
[26] = system: ACHN renal
[27] = system: SR leukemia
[28] = system: 786-0 renal
[29] = system: HCC-2998 colon
[30] = system: NCI-H226 lung
[31] = system: SN12C renal
[32] = system: CAKI-1 renal
[33] = system: IGROV1 ovarian
[34] = system: U251 CNS
[35] = system: SW-620 colon
[36] = system: SF-539 CNS
[37] = system: SF-295 CNS
[38] = system: CCRF-CEM leukemia
[39] = system: SK-MEL-2 melanoma
[40] = system: SK-MEL-5 melanoma
[41] = system: A498 renal
[42] = system: LXFL 529 NSCLC
[43] = system: XF 498 CNS
[44] = system: OVCAR-3 ovarian
[45] = system: EKVX NSCLC
[46] = system: DMS 114 small cell lung
[47] = system: RXF 393 renal
[48] = system: UACC-257 melanoma
[49] = system: NCI-H460 lung
[50] = system: OVCAR-4 ovarian
[51] = system: TK-10 renal
[52] = system: HCT-116 colon
[53] = system: HOP-62 NSCLC
[54] = system: COLO 205 colon
[55] = system: SF-268 CNS
[56] = system: P388 leukemia
[57] = system: RPMI-8226 leukemia
[58] = system: P388/ADR leukemia
[59] = system: SN12K1 renal
[60] = system: K-562 leukemia
[61] = system: OVCAR-5 ovarian
[62] = system: MCF7 breast
[63] = system: NCI/ADR-RES ovarian
[64] = system: LOX IMVI melanoma

CCOC(=O)C(=O)Nc1c(C(C)C)cccc1C(C)C
TGI [1]: > 100 µM | TGI [2]: > 100 µM | TGI [3]: > 100 µM | TGI [4]: > 100 µM | TGI [5]: > 100 µM | TGI [6]: > 100 µM | TGI [7]: > 100 µM | TGI [8]: > 100 µM | TGI [9]: > 100 µM | TGI [10]: > 100 µM | TGI [11]: > 100 µM | TGI [12]: > 100 µM | TGI [13]: > 100 µM | TGI [14]: > 100 µM | TGI [15]: > 100 µM | TGI [16]: > 100 µM | TGI [17]: > 100 µM | TGI [18]: > 100 µM | TGI [19]: > 100 µM | TGI [20]: > 100 µM | TGI [21]: > 100 µM | TGI [22]: > 100 µM | TGI [23]: > 100 µM | TGI [24]: > 100 µM | TGI [25]: > 100 µM | TGI [26]: > 100 µM | TGI [27]: > 100 µM | TGI [28]: > 100 µM | TGI [29]: > 100 µM | TGI [30]: > 100 µM | TGI [31]: > 100 µM | TGI [32]: > 100 µM | TGI [33]: > 100 µM | TGI [34]: > 100 µM | TGI [35]: > 100 µM | TGI [36]: > 100 µM | TGI [37]: > 100 µM | TGI [38]: > 100 µM | TGI [39]: > 100 µM | TGI [40]: > 100 µM | TGI [41]: > 100 µM | TGI [42]: > 100 µM | TGI [43]: > 100 µM | TGI [44]: > 100 µM | TGI [45]: > 100 µM | TGI [46]: > 100 µM | TGI [47]: > 100 µM | TGI [48]: > 100 µM | TGI [49]: > 100 µM | TGI [50]: > 100 µM | TGI [51]: > 100 µM | TGI [52]: > 100 µM | TGI [53]: > 100 µM | TGI [54]: > 100 µM | TGI [55]: > 100 µM

C#CCn1c(=O)c(C#N)c(O)c2cc3ccccc3nc21
TGI [56]: > 100 µM | TGI [57]: > 100 µM | TGI [1]: > 100 µM | TGI [2]: > 100 µM | TGI [3]: > 100 µM | TGI [4]: > 100 µM | TGI [5]: > 100 µM | TGI [6]: > 100 µM | TGI [7]: > 100 µM | TGI [8]: > 100 µM | TGI [9]: > 100 µM | TGI [58]: > 100 µM | TGI [11]: > 100 µM | TGI [12]: > 100 µM | TGI [13]: > 100 µM | TGI [15]: > 100 µM | TGI [16]: > 100 µM | TGI [17]: > 100 µM | TGI [18]: > 100 µM | TGI [59]: > 100 µM | TGI [60]: > 100 µM | TGI [19]: > 100 µM | TGI [21]: > 100 µM | TGI [22]: > 100 µM | TGI [23]: > 100 µM | TGI [24]: > 100 µM | TGI [61]: > 100 µM | TGI [25]: > 100 µM | TGI [29]: > 100 µM | TGI [30]: > 100 µM | TGI [31]: > 100 µM | TGI [32]: > 100 µM | TGI [33]: > 100 µM | TGI [34]: > 100 µM | TGI [35]: > 100 µM | TGI [36]: > 100 µM | TGI [37]: > 100 µM | TGI [38]: > 100 µM | TGI [39]: > 100 µM | TGI [40]: > 100 µM | TGI [41]: > 100 µM | TGI [43]: > 100 µM | TGI [44]: > 100 µM | TGI [62]: > 100 µM | TGI [45]: > 100 µM | TGI [46]: > 100 µM | TGI [47]: > 100 µM | TGI [48]: > 100 µM | TGI [63]: > 100 µM | TGI [49]: > 100 µM | TGI [52]: > 100 µM | TGI [53]: > 100 µM | TGI [54]: > 100 µM | TGI [64]: > 100 µM | TGI [55]: > 31.6 µM
